Experimental findings from ChEMBL document CHEMBL1121578, “Synthesis of certain [6:5:6] linear tricyclic nucleosides as potential antitumor agents” (1980) are described below.

Some results are limits rather than exact numbers.

Assay [1] has as its system L1210. The assay can be described thus: Concentration required to reduce the growth rate of L-1210 cells to half of the control rate; No effect on cell growth of 1E-4 M of the compound. It is filed as functional, cell-based. As to conditions: Mus musculus.
For assay [2], the system named is Mus musculus. Briefly: In vivo increase in life span of drug treated (L1210-bearing) mice administered at a dose of 100 mg/kg/injection. The class given is functional.
For assay [3], the system named is L1210. The assay can be described thus: Concentration required to reduce the growth rate of L-1210 cells to half of the control rate. As to conditions: Mus musculus, read-out: ID50 (the source's name). The class given is functional.
The test system of assay [4] is Mus musculus. Briefly: In vivo increase in life span of drug treated (L1210-bearing) mice administered at a dose of 200 mg/kg/injection. It is filed as functional.
In assay [5] the test system is Mus musculus. Briefly: In vivo increase in life span of drug treated (L1210-bearing) mice administered at a dose of 400 mg/kg/injection. It is filed as functional.
Assay [6] concerns Mus musculus. The assay can be described thus: In vivo increase in life span of drug treated (L1210-bearing) mice administered at a dose of 120 mg/kg/injection. It is filed as functional.
Assay [7] concerns Mus musculus. The assay can be described thus: In vivo increase in life span of drug treated (L1210-bearing) mice administered at a dose of 320 mg/kg/injection. The class given is functional.
Assay [8] relates to Mus musculus. The assay can be described thus: In vivo increase in life span of drug treated (P388-bearing) mice administered at a dose of 200 mg/kg/injection. The class given is functional.
In assay [9] the test system is Mus musculus. The assay can be described thus: In vivo increase in life span of drug treated (P388-bearing) mice administered at a dose of 50 mg/kg/injection. The class given is functional.
Assay [10] deals with Mus musculus. Briefly: In vivo increase in life span of drug treated (L1210-bearing) mice administered at a dose of 8 mg/kg/injection. It is filed as functional.
The subject of assay [11] is Mus musculus. The assay can be described thus: In vivo increase in life span of drug treated (L1210-bearing) mice administered at a dose of 25 mg/kg/injection. It is filed as functional.
Assay [12] relates to Mus musculus. Briefly: In vivo increase in life span of drug treated (L1210-bearing) mice administered at a dose of 600 mg/kg/injection. The class given is functional.

For the compound `Nc1ncnc2c1c1c(N)ncnc1n2[C@@H]1O[C@H](CO)[C@@H](O)[C@H]1O`, in [1], the ID50 result was “No effect”. The ILS at 100 mg/kg in [2] is -9%.
On to `Nc1ncnc2c1c1c(=S)[nH]c(=O)[nH]c1n2C1O[C@H](CO)[C@@H](O)[C@H]1O` (stereo partly specified), for which, in assay [3], the IC50 is 11 µM. Besides, the ILS at 100 mg/kg in assay [2] was determined as 4%.
For `CSc1nc(O)nc2c1c1c(N)ncnc1n2C1O[C@H](CO)[C@@H](O)[C@H]1O` (stereo partly specified), in [1], the ID50 entry is “No effect”. For the same compound, the ILS at 200 mg/kg in [4] was 4%.
In the case of `CSc1nc(SC)c2c3c(N)ncnc3n(C3O[C@H](CO)[C@@H](O)[C@H]3O)c2n1` (stereo partly specified), the IC50 in [3] was 78 µM. The ILS at 200 mg/kg in assay [4] stood at 45%.
The matching figures for `Nc1ncnc2c1c1c(N)nc(O)nc1n2C1O[C@H](CO)[C@@H](O)[C@H]1O` (stereo partly specified): 120 µM and 21%.
The matching figures for `CSc1nc(O)c2c3c(N)ncnc3n(C3O[C@H](CO)[C@@H](O)[C@H]3O)c2n1` (stereo partly specified): 80 µM and 0%.
As to `CSc1nc(N)c2c3c(N)ncnc3n(C3O[C@H](CO)[C@@H](O)[C@H]3O)c2n1` (stereo partly specified), the ID50 entry in [1] is “No effect”. In addition, in assay [5], the ILS at 400 mg/kg is 1%.
Turning to `NC(=O)c1c(N)n(C2O[C@H](CO)[C@@H](O)[C@H]2O)c2ncnc(N)c12` (stereo partly specified), in assay [6], the ILS at 120 mg/kg was found to be 30%. Further, in [3], the IC50 turned out to be 16 µM.
Turning to `Nc1ncnc2c1c1c(SCc3ccc([N+](=O)[O-])cc3)ncnc1n2C1O[C@H](CO)[C@@H](O)[C@H]1O` (stereo partly specified), the IC50 in [3] came to 45 µM. In assay [4], the ILS at 200 mg/kg was -2%.
For the compound `Nc1ncnc2c1c1cnc(O)nc1n2C1O[C@H](CO)[C@@H](O)[C@H]1O` (stereo partly specified), the ILS at 320 mg/kg in [7] was found to be 10%. In addition, the IC50 in assay [3] turned out to be 75 µM.
Take `Nc1ncnc2c1c1c(O)nc(S)nc1n2C1O[C@H](CO)[C@@H](O)[C@H]1O` (stereo partly specified): the IC50 in assay [3] is 7 µM. Besides, the ILS at 400 mg/kg in [5] was 14%.
`CSc1ncnc2c1c1c(N)ncnc1n2C1O[C@H](CO)[C@@H](O)[C@H]1O` (stereo partly specified): the ILS at 200 mg/kg in assay [8] is 5%; in [4], 9%. Moreover, the IC50 in assay [3] is 8.6 µM.
Consider `Nc1ncnc2c1c1c(S)nc(S)nc1n2C1O[C@H](CO)[C@@H](O)[C@H]1O` (stereo partly specified), for which, in assay [3], the IC50 turned out to be 6.1 µM. The ILS at 400 mg/kg in [5] came out at 10%.
As for `Nc1ncnc2c1c1c(O)ncnc1n2C1O[C@H](CO)[C@@H](O)[C@H]1O` (stereo partly specified), in assay [9], the ILS at 50 mg/kg came out at 33%. In addition, the IC50 in [3] was 63 µM. In assay [2], the ILS at 100 mg/kg turned out to be 20%.
Take `Nc1nc2c(c(=O)[nH]1)c1c(N)ncnc1n2[C@@H]1O[C@H](CO)[C@@H](O)[C@H]1O`: the IC50 in [3] is 2.5 µM. Also, the ILS at 200 mg/kg in assay [4] amounted to 13%.
The matching figures for `Nc1ncnc2c1c1cncnc1n2C1O[C@H](CO)[C@@H](O)[C@H]1O` (stereo partly specified): more than 100 µM and 2%.
For `N#Cc1c(N)n(C2O[C@H](CO)[C@@H](O)[C@H]2O)c2ncnc(N)c12` (stereo partly specified), the IC50 in [3] came to 0.18 µM. Moreover, the ILS at 8 mg/kg in assay [10] was determined as 26%.
As to `Nc1ncnc2c1c1c(S)ncnc1n2C1O[C@H](CO)[C@@H](O)[C@H]1O` (stereo partly specified), in [3], the IC50 was 2 µM. Further, in [2], the ILS at 100 mg/kg is 38%.
Take `Nc1ncnc2c1c1c(O)nc(O)nc1n2C1O[C@H](CO)[C@@H](O)[C@H]1O` (stereo partly specified): the IC50 in assay [3] was approximately 100 µM. In addition, the ILS at 400 mg/kg in assay [5] amounted to 108%.
Consider `NC(=S)c1c(N)n(C2O[C@H](CO)[C@@H](O)[C@H]2O)c2ncnc(N)c12` (stereo partly specified), for which the ILS at 25 mg/kg in assay [11] amounted to 37%. In assay [3], the IC50 turned out to be 0.22 µM.
Consider `N#Cc1c(Br)n(C2O[C@H](CO)[C@@H](O)[C@H]2O)c2ncnc(N)c12` (stereo partly specified), for which the ILS at 600 mg/kg in [12] amounted to 22%. Besides, the IC50 in assay [3] came to 0.21 µM.
For the compound `C=CCSc1ncnc2c1c1c(N)ncnc1n2C1O[C@H](CO)[C@@H](O)[C@H]1O` (stereo partly specified), the IC50 in [3] is 110 µM. Further, the ILS at 200 mg/kg in [4] was 9%.
